Reference: US20120238491A1, “IMMUNOLOGICALLY ACTIVE LIPOPEPTIDES AND METHODS FOR USE THEREOF” (THERIMUNEX PHARMACEUTICALS, INC., priority 2009, published 2012)

Columns and labels:
IL-8 mRNA = IL-8 mRNA expression in human fibroblasts; type: cell-based
Procedure: (§1) mRNA Expression Experiments. Normal primary human fibroblasts obtained from the Coriell Institute (Camden, N.J.) were cultured in 70 mm dishes in DMEM supplemented with 10% FBS and 1× penicillin/streptomycin at 37° C. and 5% CO2. Human fibroblasts were incubated in the presence of the serum fractions, compound pDAG, the peptide moiety of pDAG, or diacylglycerol. In the initial experiments we examined the differences between fibroblasts treated with the various serum fractions, synthetic pDAG (the peptide moiety from pDAG or diacylglycerol), fibroblasts treated with LPS as a positive control, and fibroblasts without treatment. The culture medium was stored at −80° C. for ELISA of the excreted cytokine proteins (see below). Total RNA from fibroblasts was extracted using the RNeasy Mini kit (Qiagen, Valencia, Calif.) according to the manufacturer's protocol. To verify the expression of transcripts; 2.0 μg of total RNA was reverse-transcribed using Super-script-III reverse transcriptase (Invitrogen, Carlsbad Calif.), according to the manufacturer's protocol. Transcripts were quantified using SYBR Green PCR amplification (Perkin Elmer, Waltham Mass.). Primers employed in these studies are outlined in Table 6, below. All transcripts were normalized to β-actin. Briefly, 0.4 μg/μL of cDNA was tested with 10 μM of each specific primer and 1× SYBR Green in a total volume of 20 uL.
(§2) Lipofection Studies. Cells were cultured so that at the time of transfection they were 50-80% confluent. […] PLUS reagent (0.5 μL) and lipofectamine (1 μL) were then added to the peptide Opti-MEM solution, vortexed and incubated at room temperature for 30 min. Five hundred microliters of complete DMEM was added to the fibroblasts and 0.6 μL of the peptide/lipofectamine was added and allowed to incubate overnight. RNA was extracted and processed as described above.
Bioassays. The fractions generated from dialysis (methanol/chloroform soluble, methanol/chloroform insoluble, dialysis retentate, and the fractions collected from reversed phase HPLC) were taken to dryness by lyophilization. […]

IL-1 mRNA = IL-1 mRNA expression in human fibroblasts; type: cell-based
Procedure: as §1, with “Therefore we speculated that the diacylglycerol moiety enabled the peptide to cross the cell membrane. To test this hypothesis and to ascertain the biological role of the diacylglycerol moiety in compound pDAG, if any, the peptide moiety transfected into human fibroblasts or diacylglycerol alone were evaluated by measuring the expression of mRNA” for “mRNA”, “(IL-1, IL-6, IL-8, IL-18, and IL-33). […] Diacylglycerol could stimulate mRNA expression of IL-33 and IL-18, but not IL-1 in fibroblasts. […]” for “Expression Experiments.”, “uL. Lipofection Studies. Cells were cultured so that at the time of transfection they were 50-80% confluent. Five microliters of the stock peptide moiety from pDAG was diluted in Opti-MEM Reduced Serum Medium to give a final concentration of 5 μg/mL. […]” for “uL.”

IL-6 mRNA = IL-6 mRNA expression in human fibroblasts; type: cell-based; conditions: for IL-6 mRNA elevation relative to a -actin control: 24 hours, p<0.05; for IL-6 mRNA expression increase relative to untreated control: 24 h, normalized to -actin (FIG. 1)
Procedure: as §1, §2
(§3) Bioassays. The fractions generated from dialysis (methanol/chloroform soluble, methanol/chloroform insoluble, dialysis retentate, and the fractions collected from reversed phase HPLC) were taken to dryness by lyophilization. The freeze-dried solids were weighed and dissolved in the appropriate volume of deionized water to give a final concentration of 1 mg/mL and assayed for mRNA expression (IL-6, IL-8, MIP1α, and MIP1β) in human fibroblasts.

IL-33 mRNA = IL-33 mRNA expression in human fibroblasts; type: cell-based
Procedure: Therefore we speculated that the diacylglycerol moiety enabled the peptide to cross the cell membrane. To test this hypothesis and to ascertain the biological role of the diacylglycerol moiety in compound pDAG, if any, the peptide moiety transfected into human fibroblasts or diacylglycerol alone were evaluated by measuring the expression of mRNA (IL-1, IL-6, IL-8, IL-18, and IL-33). […] Diacylglycerol could stimulate mRNA expression of IL-33 and IL-18, but not IL-1 in fibroblasts. […] Normal primary human fibroblasts obtained from the Coriell Institute (Camden, N.J.) were cultured in 70 mm dishes in DMEM supplemented with 10% FBS and 1× penicillin/streptomycin at 37° C. and 5% CO2. Human fibroblasts were incubated in the presence of the serum fractions, compound pDAG, the peptide moiety of pDAG, or diacylglycerol. In the initial experiments we examined the differences between fibroblasts treated with the various serum fractions, synthetic pDAG (the peptide moiety from pDAG or diacylglycerol), fibroblasts treated with LPS as a positive control, and fibroblasts without treatment. The culture medium was stored at −80° C. for ELISA of the excreted cytokine proteins (see below). […] Transcripts were quantified using SYBR Green PCR amplification (Perkin Elmer, Waltham Mass.). […]

human fibroblasts = assay: Inflammatory cytokine and chemokine production by human fibroblasts (overall stimulation); type: cell-based
Procedure: as §1
as §2, with “overnight.” for “overnight. RNA was extracted and processed as described above.”

MCP-1 mRNA = MCP-1 mRNA expression in human fibroblasts; type: cell-based; conditions: for MCP-1 expression in fibroblasts (in words): peptide transfected; for MCP-1 mRNA increase: relative to -actin
Procedure: as §1, §3

IL-18 mRNA = IL-18 mRNA expression in human fibroblasts; type: cell-based
Procedure: as §1, with “Therefore we speculated that the diacylglycerol moiety enabled the peptide to cross the cell membrane. To test this hypothesis and to ascertain the biological role of the diacylglycerol moiety in compound pDAG, if any, the peptide moiety transfected into human fibroblasts or diacylglycerol alone were evaluated by measuring the expression of mRNA” for “mRNA”, “(IL-1, IL-6, IL-8, IL-18, and IL-33). […] Diacylglycerol could stimulate mRNA expression of IL-33 and IL-18, but not IL-1 in fibroblasts. […]” for “Expression Experiments.”, “uL. Lipofection Studies. Cells were cultured so that at the time of transfection they were 50-80% confluent. Five microliters of the stock peptide moiety from pDAG was diluted in Opti-MEM Reduced Serum Medium to give a final concentration of 5 μg/mL. PLUS reagent (0.5 μL) and lipofectamine (1 μL) were then added to the peptide Opti-MEM solution, vortexed and incubated at room temperature for 30 min. Five hundred microliters of complete DMEM was added to the fibroblasts and 0.6 μL of the peptide/lipofectamine was added and allowed to incubate overnight. RNA was extracted and processed as described above.” for “uL.”

MIP-1 mRNA = MIP-1 mRNA expression in human fibroblasts; type: cell-based; conditions: for MIP-1α expression in fibroblasts (in words): peptide transfected; for MIP-1 mRNA expression increase: natural pDAG 1:100 dilution, relative to -actin
Procedure: as §1, §3

C. pneumonia = C. pneumonia load in THP-1 cells; type: cell-based; conditions: 25 ng/ml and 50 ng/ml
Text: The pDAG produced in accordance with the invention is believed to induce fibroblast IL-6 expression similar to that of the natural product, and to induce fibroblast IL-8 mRNA and protein expression, to increase MCP-1 expression and to induce MIP-1alpha.

[1] = system: established bacterial and viral infections; assay: Administration to dogs, survival rate; type: in vivo; conditions: various amounts
[2] = system: established bacterial and viral infections; assay: Administration to cows, number of white blood cells; type: in vivo; conditions: various amounts
IgM production = assay: Administration to rabbits, adjuvant effect on IgM production; type: in vivo; conditions: administered with other drugs
IL-8 protein = assay: ELISA for secreted IL-8 protein from human fibroblasts; type: cell-based; conditions: 0.3 to 3 ng/mL
Procedure: Fibroblasts were treated with various concentrations of synthetic pDAG for 24 hours; the media were reserved for ELISA assays of IL-6 and IL-8, and mRNA was extracted from the cells to measure all four cytokines IL-6 mRNA was elevated 20% in response to synthetic pDAG and 40% with natural pDAG relative to a -actin control (p<0.05). […] Compound pDAG induced IL-8 expression by about 5-fold compared to untreated fibroblasts, in dose-response studies (FIG. 2). […] The MCP-1 and MIP-1 mRNA expression in human fibroblasts incubated with approximately equivalent amounts of natural pDAG (1:100 dilution) and synthetic pDAG (3 ng/mL). Both synthetic pDAG and the natural product induced a 3-fold increase in MCP-1 mRNA relative to the -actin control and increased MIP-1α mRNA expression relative to -actin by 15% (FIG. 3).
ELISA for IL-8 Protein. Human IL-8 was measured by ELISA according to the manufacturer's specifications (eBioscience San Diego, Calif.) in the supernatants of fibroblasts cultured in complete DMEM with varying amounts of pDAG. Briefly, high affinity binding plates were coated with anti-human IL-8 overnight at 4° C. Wells were washed with Wash Buffer five times at 1 min. each wash and blocked with Assay Diluent for 60 min. at room temp. […] The reaction was halted with Stop Solution and the plate read at 450 nm with wavelength subtraction at 570 nm.

HBV = HBV viral load in hepatocytes; type: cell-based; conditions: 25 to 400 ng/ml
Lability to hydrolysis = type: physicochemical; conditions: acidic and basic conditions
Procedure: The C8 RP-HPLC peaks eluting between 4.83 and 9.36 min. in a non-purified fraction containing compound pDAG are hydrolysis products of compound pDAG. Therefore, the classical degradation approach to natural product structure elucidation was used. The purified compound pDAG (as a tryptophan complex) was subjected to mild acid hydrolysis, in situ N-terminal sulfonation, and analysis of the hydrolysis products to identify peptide fragments that would account for the entire structure of pDAG.
Hydrolysis and Derivatization of the Natural Product (pDAG). […] Therefore, […] of native pDAG was subjected to mild acid hydrolysis conditions (1 N HCl in phosphate buffered saline) for 18 hours at 25° C. The post-reaction buffer salts were removed using a C18 spin column (ThermoFisher Scientific) and the hydrolysis products were eluted from the column using 50% CH3CN/0.1% TFA. The final product was brought to dryness by evaporation in vacuo at 4° C. The hydrolysis products were derivatized using the N-terminal sulfonation reagent, 4-sulfophenylisothiocyanate, and analyzed in situ by MALDITOF in an -cyano-4-hydroxycinnamic acid matrix using the method described by Wang. See Wang, D.; Kalb, S. R.; Cotter, R. J. Rapid Commun. Mass Spectrom. 2004, 18, 96-102.

[3] = transfected peptide 10 ng/mL (~3 nM)
[4] = increasing concentrations of synthetic pDAG

acALYDKGYTSKEQKDCVGI [peptide moiety of pDAG]
IL-8 mRNA vs untreated or lipofectamine-only fibroblasts (IL-8 mRNA; [3]): substantially increased | IL-1 mRNA vs untreated or lipofectamine-only fibroblasts (IL-1 mRNA; [3]): substantially increased | IL-6 mRNA vs untreated or lipofectamine-only fibroblasts (IL-6 mRNA; [3]): substantially increased | IL-33 mRNA vs untreated or lipofectamine-only fibroblasts (IL-33 mRNA; [3]): substantially increased | fold higher concentration than pDAG needed for comparable responses (human fibroblasts; peptide moiety, not transfected): 1,000 fold | MCP-1 expression in fibroblasts (in words) (MCP-1 mRNA): increased expression | IL-18 mRNA vs untreated or lipofectamine-only fibroblasts (IL-18 mRNA; [3]): substantially increased | increase in IL-18 mRNA expression (IL-18 mRNA; transfected peptide, ~10 nM): > 3 fold | MIP-1α expression in fibroblasts (in words) (MIP-1 mRNA): increased expression

CCCCC/C=C\C/C=C\C/C=C\C/C=C\CCCC(=O)O[C@@H](CO)COC(=O)CCCCCCCCCCCCCCCCC [diacylglycerol, 1-stearoyl-2-arachidonoyl-sn-glycerol, reference compound]
increase in IL-18 mRNA expression (IL-18 mRNA; diacylglycerol alone, ~30 nM): 20%

1-peptidyl-2-arachidonoyl-3-stearoyl glyceride [pDAG]
IL-8 expression induction compared to untreated fibroblasts (IL-8 mRNA; dose-response studies (FIG. 2), 24 hours): about 5 fold | IL-8 mRNA expression dose response (IL-8 mRNA; [4]): negative dose response | induction of IL-1alpha (IL-1 mRNA): found to induce | induction of IL-1beta (IL-1 mRNA): found to induce | IL-6 mRNA elevation relative to a -actin control (IL-6 mRNA; listed as synthetic pDAG): 20% | IL-6 mRNA expression increase relative to untreated control (IL-6 mRNA; synthetic pDAG 5 ng/mL): ~30% | induction of IL-33 (IL-33 mRNA): found to induce | C. pneumonia load (C. pneumonia): reduction of C. pneumonia load | EC99 (apparent / possible maximum effective concentration) (human fibroblasts; pDAG, human fibroblasts, cytokine and chemokine production): 3 ng/mL | EC99 (human fibroblasts; pDAG, signaling in human fibroblasts): ~1 nM | survival rate compared with untreated dogs [1]: over doubling the survival rate | MCP-1 expression in fibroblasts (in words) (MCP-1 mRNA): increased expression | MCP-1 mRNA increase (MCP-1 mRNA; synthetic pDAG 3 ng/mL): 3 fold | induction of IL-18 (IL-18 mRNA): found to induce | reduction of the number of white blood cells [2]: nearly threefold | adjuvant effect in terms of IgM production (IgM production): significant adjuvant effect | concentration giving maximal effect (EC99) on secreted IL-8 (IL-8 protein; ELISA, 24 hours): 3 ng/mL | secreted IL-8 protein dose response (IL-8 protein; [4]): positive linear dose response | HBV viral load (HBV): reduction of HBV viral load | MIP-1α expression in fibroblasts (in words) (MIP-1 mRNA): increased expression

1-peptidyl-2-arachidonoyl-3-stearoyl glyceride [natural pDAG]
IL-6 mRNA elevation relative to a -actin control (IL-6 mRNA): 40% | IL-6 mRNA expression increase relative to untreated control (IL-6 mRNA; natural pDAG 1:100 dilution): ~30% | MCP-1 mRNA increase (MCP-1 mRNA; natural pDAG 1:100 dilution): 3 fold | lability to hydrolysis (Lability to hydrolysis; listed as Native pDAG): labile to acid hydrolysis | lability to hydrolysis (Lability to hydrolysis; listed as serum-derived compound pDAG): especially labile to hydrolysis | MIP-1 mRNA expression increase (MIP-1 mRNA): ~60% | MIP-1 mRNA expression increase (MIP-1 mRNA; listed as natural product): 15%
